# Test results from publication PMC6211230, “Assessment of the antiproliferative and apoptotic roles of sulfonamide carbonic anhydrase IX inhibitors in HeLa cancer cell line” (Journal of Enzyme Inhibition and Medicinal Chemistry, 2018).
# System: HeLa
# Assay: WST-1 cytotoxicity, HeLa
# Format: cell-based, human
# Conditions: 24 h
# Description: (§1) Cancer and normal cell lines were purchased from ATCC and stored in liquid nitrogen. HT-29 (colon adenoma cancer), HeLa (cervix adenoma cancer cell), MDA-MB-231 (breast adenoma cancer cell) and HEK-293 (embryonic kidney epithelial cell), PNT-1A (normal prostate cells) cell lines were incubated in DMEM: F-12 and RPMI-1640, including 10% Foetal Bovine Serum (FBS), 100 μg/mL streptomycin/100 IU/mL penicillin, at 37 °C in an incubator containing 5% CO2, 95% air in a humid atmosphere.
# (§2) The cytotoxic effects of the substances were evaluated with WST-1 kits (Roche, Germany) in accordance with the manufacturer’s protocols. The cells were plated on 96-well plates (10^4 cells in each well). After incubation for 24 h, the media were discarded and the substances and Cisplatin as the control drug, at doses of 0, 2.5, 5, 10, 25, 50, 100, and 200 μM, were incubated for 24, 48, and 72 h. WST-1 reactive of 10 µl was added to all wells. Following 4 h incubation, the measurements were taken on a plate reader (Spectramax M5) at wavelengths of 450 and 630 nm. Graphs were then created and the IC50 value of each substance was calculated.
row,SMILES,IC50
1,NS(=O)(=O)c1ccc(CCN=Cc2cc(Cl)cc(Cl)c2O)cc1 [Compound A-2],345 µM
2,NS(=O)(=O)c1ccc(CCN=Cc2ccccc2O)cc1 [Compound A-3],123 µM
3,NS(=O)(=O)c1ccc(CCNCc2ccccc2O)cc1 [Compound B-3],156 µM
4,NS(=O)(=O)c1ccc(CCNCc2cc(Cl)ccc2O)cc1 [Compound B-1],218 µM
5,NS(=O)(=O)c1ccc(CCNCc2cc(Cl)cc(Cl)c2O)cc1 [Compound B-2],234 µM
6,"N.N.[Cl][Pt][Cl] [Cisplatin, reference compound]",28.9 µM

# Same assay, conditions: 48 h
row,SMILES,IC50
1,NS(=O)(=O)c1ccc(CCN=Cc2cc(Cl)cc(Cl)c2O)cc1 [Compound A-2],300 µM
2,NS(=O)(=O)c1ccc(CCN=Cc2ccccc2O)cc1 [Compound A-3],112 µM
3,NS(=O)(=O)c1ccc(CCNCc2ccccc2O)cc1 [Compound B-3],134 µM
4,NS(=O)(=O)c1ccc(CCNCc2cc(Cl)ccc2O)cc1 [Compound B-1],112 µM
5,NS(=O)(=O)c1ccc(CCNCc2cc(Cl)cc(Cl)c2O)cc1 [Compound B-2],212 µM
6,"N.N.[Cl][Pt][Cl] [Cisplatin, reference compound]",7.6 µM

# Same assay, conditions: 72 h
row,SMILES,IC50
1,NS(=O)(=O)c1ccc(CCN=Cc2cc(Cl)cc(Cl)c2O)cc1 [Compound A-2],123 µM
2,NS(=O)(=O)c1ccc(CCN=Cc2ccccc2O)cc1 [Compound A-3],76.5 µM
3,NS(=O)(=O)c1ccc(CCNCc2ccccc2O)cc1 [Compound B-3],45.4 µM
4,NS(=O)(=O)c1ccc(CCNCc2cc(Cl)ccc2O)cc1 [Compound B-1],98.9 µM
5,NS(=O)(=O)c1ccc(CCNCc2cc(Cl)cc(Cl)c2O)cc1 [Compound B-2],154 µM
6,"N.N.[Cl][Pt][Cl] [Cisplatin, reference compound]",6.1 µM

# System: HT-29
# Assay: WST-1 cytotoxicity, HT-29
# Format: cell-based, human
# Conditions: HT-29, 24 h
# Description: as §1, §2
row,SMILES,IC50
1,NS(=O)(=O)c1ccc(CCN=Cc2cc(Cl)cc(Cl)c2O)cc1 [Compound A-2],234 µM
2,NS(=O)(=O)c1ccc(CCN=Cc2ccccc2O)cc1 [Compound A-3],143 µM
3,NS(=O)(=O)c1ccc(CCNCc2ccccc2O)cc1 [Compound B-3],560 µM
4,NS(=O)(=O)c1ccc(CCNCc2cc(Cl)ccc2O)cc1 [Compound B-1],606 µM
5,NS(=O)(=O)c1ccc(CCNCc2cc(Cl)cc(Cl)c2O)cc1 [Compound B-2],356 µM
6,"N.N.[Cl][Pt][Cl] [Cisplatin, reference compound]",23.7 µM

# Same assay, conditions: HT-29, 48 h
row,SMILES,IC50
1,NS(=O)(=O)c1ccc(CCN=Cc2cc(Cl)cc(Cl)c2O)cc1 [Compound A-2],254 µM
2,NS(=O)(=O)c1ccc(CCN=Cc2ccccc2O)cc1 [Compound A-3],100 µM
3,NS(=O)(=O)c1ccc(CCNCc2ccccc2O)cc1 [Compound B-3],450 µM
4,NS(=O)(=O)c1ccc(CCNCc2cc(Cl)ccc2O)cc1 [Compound B-1],63.8 µM
5,NS(=O)(=O)c1ccc(CCNCc2cc(Cl)cc(Cl)c2O)cc1 [Compound B-2],200 µM
6,"N.N.[Cl][Pt][Cl] [Cisplatin, reference compound]",20 µM

# Same assay, conditions: HT-29, 72 h
row,SMILES,IC50
1,NS(=O)(=O)c1ccc(CCN=Cc2cc(Cl)cc(Cl)c2O)cc1 [Compound A-2],134 µM
2,NS(=O)(=O)c1ccc(CCN=Cc2ccccc2O)cc1 [Compound A-3],87.4 µM
3,NS(=O)(=O)c1ccc(CCNCc2ccccc2O)cc1 [Compound B-3],210 µM
4,NS(=O)(=O)c1ccc(CCNCc2cc(Cl)ccc2O)cc1 [Compound B-1],91.8 µM
5,NS(=O)(=O)c1ccc(CCNCc2cc(Cl)cc(Cl)c2O)cc1 [Compound B-2],155 µM
6,"N.N.[Cl][Pt][Cl] [Cisplatin, reference compound]",16.3 µM

# System: MDA-MB-231
# Assay: WST-1 cytotoxicity, MDA-MB-231
# Format: cell-based, human
# Conditions: MDA-MB-231, 24 h
# Description: as §1, §2
row,SMILES,IC50
1,NS(=O)(=O)c1ccc(CCN=Cc2cc(Cl)cc(Cl)c2O)cc1 [Compound A-2],125 µM
2,NS(=O)(=O)c1ccc(CCN=Cc2ccccc2O)cc1 [Compound A-3],98.5 µM
3,NS(=O)(=O)c1ccc(CCNCc2ccccc2O)cc1 [Compound B-3],345 µM
4,NS(=O)(=O)c1ccc(CCNCc2cc(Cl)ccc2O)cc1 [Compound B-1],492 µM
5,NS(=O)(=O)c1ccc(CCNCc2cc(Cl)cc(Cl)c2O)cc1 [Compound B-2],145 µM
6,"N.N.[Cl][Pt][Cl] [Cisplatin, reference compound]",21.2 µM

# Same assay, conditions: MDA-MB-231, 48 h
row,SMILES,IC50
1,NS(=O)(=O)c1ccc(CCN=Cc2cc(Cl)cc(Cl)c2O)cc1 [Compound A-2],145 µM
2,NS(=O)(=O)c1ccc(CCN=Cc2ccccc2O)cc1 [Compound A-3],80.5 µM
3,NS(=O)(=O)c1ccc(CCNCc2ccccc2O)cc1 [Compound B-3],234 µM
4,NS(=O)(=O)c1ccc(CCNCc2cc(Cl)ccc2O)cc1 [Compound B-1],595 µM
5,NS(=O)(=O)c1ccc(CCNCc2cc(Cl)cc(Cl)c2O)cc1 [Compound B-2],43.3 µM
6,"N.N.[Cl][Pt][Cl] [Cisplatin, reference compound]",10.2 µM

# Same assay, conditions: MDA-MB-231, 72 h
row,SMILES,IC50
1,NS(=O)(=O)c1ccc(CCN=Cc2cc(Cl)cc(Cl)c2O)cc1 [Compound A-2],100 µM
2,NS(=O)(=O)c1ccc(CCN=Cc2ccccc2O)cc1 [Compound A-3],65.4 µM
3,NS(=O)(=O)c1ccc(CCNCc2ccccc2O)cc1 [Compound B-3],126 µM
4,NS(=O)(=O)c1ccc(CCNCc2cc(Cl)ccc2O)cc1 [Compound B-1],243 µM
5,NS(=O)(=O)c1ccc(CCNCc2cc(Cl)cc(Cl)c2O)cc1 [Compound B-2],54.3 µM
6,"N.N.[Cl][Pt][Cl] [Cisplatin, reference compound]",7 µM

# System: HEK-293
# Assay: WST-1 cytotoxicity, HEK-293 normal cells
# Format: cell-based, human
# Conditions: HEK-293 normal cell, 24 h
# Description: as §1, §2
row,SMILES,IC50
1,NS(=O)(=O)c1ccc(CCN=Cc2cc(Cl)cc(Cl)c2O)cc1 [Compound A-2],120 µM
2,NS(=O)(=O)c1ccc(CCN=Cc2ccccc2O)cc1 [Compound A-3],98.4 µM
3,NS(=O)(=O)c1ccc(CCNCc2ccccc2O)cc1 [Compound B-3],179 µM
4,NS(=O)(=O)c1ccc(CCNCc2cc(Cl)ccc2O)cc1 [Compound B-1],324 µM
5,NS(=O)(=O)c1ccc(CCNCc2cc(Cl)cc(Cl)c2O)cc1 [Compound B-2],230 µM
6,"N.N.[Cl][Pt][Cl] [Cisplatin, reference compound]",29.6 µM

# Same assay, conditions: HEK-293 normal cell, 48 h
row,SMILES,IC50
1,NS(=O)(=O)c1ccc(CCN=Cc2cc(Cl)cc(Cl)c2O)cc1 [Compound A-2],100 µM
2,NS(=O)(=O)c1ccc(CCN=Cc2ccccc2O)cc1 [Compound A-3],65.4 µM
3,NS(=O)(=O)c1ccc(CCNCc2ccccc2O)cc1 [Compound B-3],120 µM
4,NS(=O)(=O)c1ccc(CCNCc2cc(Cl)ccc2O)cc1 [Compound B-1],207 µM
5,NS(=O)(=O)c1ccc(CCNCc2cc(Cl)cc(Cl)c2O)cc1 [Compound B-2],215 µM
6,"N.N.[Cl][Pt][Cl] [Cisplatin, reference compound]",14 µM

# Same assay, conditions: HEK-293 normal cell, 72 h
row,SMILES,IC50
1,NS(=O)(=O)c1ccc(CCN=Cc2cc(Cl)cc(Cl)c2O)cc1 [Compound A-2],65.4 µM
2,NS(=O)(=O)c1ccc(CCN=Cc2ccccc2O)cc1 [Compound A-3],32.2 µM
3,NS(=O)(=O)c1ccc(CCNCc2ccccc2O)cc1 [Compound B-3],45.4 µM
4,NS(=O)(=O)c1ccc(CCNCc2cc(Cl)ccc2O)cc1 [Compound B-1],63.7 µM
5,NS(=O)(=O)c1ccc(CCNCc2cc(Cl)cc(Cl)c2O)cc1 [Compound B-2],120 µM
6,"N.N.[Cl][Pt][Cl] [Cisplatin, reference compound]",2 µM

# System: PNT-1A
# Assay: WST-1 cytotoxicity, PNT-1A normal cells
# Format: cell-based, human
# Conditions: PNT-1A normal cell, 24 h
# Description: as §1, §2
row,SMILES,IC50
1,NS(=O)(=O)c1ccc(CCN=Cc2cc(Cl)cc(Cl)c2O)cc1 [Compound A-2],167 µM
2,NS(=O)(=O)c1ccc(CCN=Cc2ccccc2O)cc1 [Compound A-3],45.4 µM
3,NS(=O)(=O)c1ccc(CCNCc2ccccc2O)cc1 [Compound B-3],100 µM
4,NS(=O)(=O)c1ccc(CCNCc2cc(Cl)ccc2O)cc1 [Compound B-1],593 µM
5,NS(=O)(=O)c1ccc(CCNCc2cc(Cl)cc(Cl)c2O)cc1 [Compound B-2],55.4 µM
6,"N.N.[Cl][Pt][Cl] [Cisplatin, reference compound]",13.4 µM

# Same assay, conditions: PNT-1A normal cell, 48 h
row,SMILES,IC50
1,NS(=O)(=O)c1ccc(CCN=Cc2cc(Cl)cc(Cl)c2O)cc1 [Compound A-2],170 µM
2,NS(=O)(=O)c1ccc(CCN=Cc2ccccc2O)cc1 [Compound A-3],43.3 µM
3,NS(=O)(=O)c1ccc(CCNCc2ccccc2O)cc1 [Compound B-3],89.4 µM
4,NS(=O)(=O)c1ccc(CCNCc2cc(Cl)ccc2O)cc1 [Compound B-1],190 µM
5,NS(=O)(=O)c1ccc(CCNCc2cc(Cl)cc(Cl)c2O)cc1 [Compound B-2],23.2 µM
6,"N.N.[Cl][Pt][Cl] [Cisplatin, reference compound]",11.4 µM

# Same assay, conditions: PNT-1A normal cell, 72 h
row,SMILES,IC50
1,NS(=O)(=O)c1ccc(CCN=Cc2cc(Cl)cc(Cl)c2O)cc1 [Compound A-2],100 µM
2,NS(=O)(=O)c1ccc(CCN=Cc2ccccc2O)cc1 [Compound A-3],23.3 µM
3,NS(=O)(=O)c1ccc(CCNCc2ccccc2O)cc1 [Compound B-3],70.4 µM
4,NS(=O)(=O)c1ccc(CCNCc2cc(Cl)ccc2O)cc1 [Compound B-1],372 µM
5,NS(=O)(=O)c1ccc(CCNCc2cc(Cl)cc(Cl)c2O)cc1 [Compound B-2],12.3 µM
6,"N.N.[Cl][Pt][Cl] [Cisplatin, reference compound]",8.2 µM
